Holding throughout (assay type): ADME, organism-based
A short description of data set [1]: Clearance in Sprague-Dawley rat plasma at 5 mg/kg, iv by UPLC-MS/MS analysis.
A short description of data set [2]: Volume of distribution at steady state in Sprague-Dawley rat plasma at 5 mg/kg, iv by UPLC-MS/MS analysis. The conditions noted are these: read-out: Vdss.
A short description of data set [3]: Half life in Sprague-Dawley rat plasma at 5 mg/kg, iv by UPLC-MS/MS analysis.
A short description of data set [4]: AUClast in Sprague-Dawley rat plasma at 5 mg/kg, iv by UPLC-MS/MS analysis. Also noted: route intravenous, time 0 - last, dose 5 mg/kg.
The nature of data set [5]: AUC (0 to infinity) in Sprague-Dawley rat plasma at 5 mg/kg, iv by UPLC-MS/MS analysis. Also noted: route intravenous, time infinity, dose 5 mg/kg.
The nature of data set [6]: MRT (0 to infinity) in Sprague-Dawley rat plasma at 5 mg/kg, iv by UPLC-MS/MS analysis.
A short description of data set [7]: Tmax in Sprague-Dawley rat plasma at 10 mg/kg, po by UPLC-MS/MS analysis.
Data set [8] can be described thus: Cmax in Sprague-Dawley rat plasma at 10 mg/kg, po by UPLC-MS/MS analysis. Further details: route oral, dose 10 mg/kg.
Data set [9] in a line: Half life in Sprague-Dawley rat plasma at 10 mg/kg, po by UPLC-MS/MS analysis.
Data set [10] in a line: AUClast in Sprague-Dawley rat plasma at 10 mg/kg, po by UPLC-MS/MS analysis. Also noted: route oral, time 0 - last, dose 10 mg/kg.
Data set [11] can be described thus: AUC (0 to infinity) in Sprague-Dawley rat plasma at 10 mg/kg, po by UPLC-MS/MS analysis. Further details: time infinity, route oral, dose 10 mg/kg.
Data set [12] in a line: Oral bioavailability in Sprague-Dawley rat plasma at 10 mg/kg by UPLC-MS/MS analysis.

The clearance is the rate of elimination divided by the concentration. A high value points to a high capacity for elimination. The half-life is the time needed for the level to fall by half in the phase considered. A high value points to slow decline. By AUC(0-t) is commonly meant exposure summed from dosing to a finite time, without extrapolation to infinity. As usually defined, the AUC(0-inf) is total exposure, with the tail of the curve extrapolated. High values mean more exposure, low ones less exposure. What is called MRT inf is a mean duration of stay, worked out from the concentration-time curve. One may read the Tmax as the time at which the peak concentration occurs. The Cmax is the maximum level reached in the sampled fluid or tissue. As usually defined, the bioavailability is dose-corrected exposure relative to a reference, in per cent. Lower therefore signals little systemic uptake. Compound `C[C@H]1[C@@H](O[C@@H]2CC[C@@]3(C)[C@@H](C2)C[C@H](O)[C@@H]2[C@@H]3CC[C@]3(C)[C@@H]([C@H](C)CCC(=O)O)CC[C@@H]23)O[C@@H]2O[C@]3(C)CC[C@H]4[C@H](C)CC[C@@H]1[C@@]24OO3` showed a clearance in data set [1] of 8.2 mL/min/kg. Moreover, in data set [2], the Vd was 0.346 L/kg. Further, the half-life in data set [3] was 46.4 min; in data set [9], 49.4 min. The values for the AUC(0-t) in data set [4] and in data set [10] were 10200 ng·h/mL and 4190 ng·h/mL, respectively. The results for the AUC(0-inf) in data set [5] and in data set [11] were 10200 ng·h/mL and 4430 ng·h/mL, respectively. Moreover, the MRT inf in [6] worked out at 42.2 min. Further, the time to peak (Tmax) in data set [7] worked out at 100 min. Further, the peak level in [8] (Cmax) was 1110 ng/mL. The same compound showed a bioavailability in data set [12] of 20.6%.

These data come from ChEMBL document CHEMBL4828739, “Study on the structure-activity relationship of dihydroartemisinin derivatives: Discovery, synthesis, and biological evaluation of dihydroartemisinin-bile acid conjugates as potential anticancer agents” (Eur J Med Chem, 2021).
